Experimental data as given in patent US12091424B2, “Rapamycin derivatives” (NOVARTIS AG, priority 2017, dated 2024).

How the values were obtained:
FKBP12 = FKBP12 (Homo sapiens (Human), UniProt P62942); test: SPR assay, binding affinity to FKBP12; conditions: single-cycle kinetics
Procedure: (§1) SPR Assay to Determine Binding Affinity to FK506-Binding Proteins (FKBP). N-terminal avi-his6 tagged FKBP fusions to FKBP12, FKBP51 and FKBP52 were expressed in E. coli and purified using standard chromatography. Each protein was subsequently immobilized on a streptavidin chip in a Biacore 8K SPR instrument (GE Healthcare). Using single-cycle kinetics, compound titrations were flowed at 45 uL/min over each surface using 2-minute association and 30-minute dissociation phases in a buffer containing 50 mM Tris pH 7.5/150 mM NaCl/0.01% Tween 20/1 mM DTT/2% DMSO. The data was fit using low molecular weight (LMW) single-cycle kinetics. The equilibrium dissociation constants (KD) are reported.

mTORC1 signaling = test: MEF TSC1−/− cell-based assay for rapalog potency (pS6); parameters: species or system Mouse; conditions: Mus musculus, MEF TSC1−/− cells; average from multiple assays
Procedure: Cell-based assay for rapalog potency determination. Rapalog potency was determined using MEF TSC1−/− cell based assay. MEF TSC1−/− cells are Mouse Embryonic Fibroblasts deficient in Tuberous sclerosis protein—TSC1, which negatively regulates mTORC1 signaling and thus display constitutive mTORC1 activation, resulting in phosphorylation (activation) of downstream molecules. This cell-based assay is used to measure inhibition (de-phosphorylation) of S6 and 4EBP1 by rapalogs or other mTOR inhibitors.
MEF TSC1−/− cells were plated on Poly-D-lysine coated 384 well Griener clear bottom plates and incubated overnight at 37° C., 5% CO2. […] Nuclei were visualized with Hoechst (ThermoFisher Scientific #H3570) staining. Cells were imaged (InCell 600) using respective fluorescence channels and the potency of mTOR inhibitors was defined by pS6 IC50 (nM).
In vitro potency of mTOR inhibitors was defined by pS6 IC50 (nM) in MEF TSC1−/− cells.

FKBP51 = FKBP51 (Homo sapiens (Human), UniProt Q13451); test: SPR assay, binding affinity to FKBP51; conditions: single-cycle kinetics
Procedure: as §1

FKBP52 = FKBP52 (Homo sapiens (Human), UniProt Q02790); test: SPR assay, binding affinity to FKBP52; conditions: single-cycle kinetics
Procedure: as §1

[1] = system: S6K1 (Thr389) in FKBP12 knock-down 293T cells; test: S6K1 (Thr389) phosphorylation ELISA in FKBP12 knock-down 293T cells; type: cell-based; conditions: 2 hours treatment
Procedure: Generating FKPB12 knock-down cells. […] Selection was performed with puromycin for 48 hours and cells were plated for colony formation. FKBP12 knock-down clones were screened by immunoblotting with an anti-FKBP12 antibody (Thermo Scientific, Pierce #PA1-026A).
WT, FKBP12 knock-down and FKBP12 knock-out 293T cells were plated at a density of 30,000 cells per well in poly-D-Lysine coated 96-well plates (Corning, #354461) in Dulbecco's modified Eagle's medium (ThermoFisher, #11995-065) supplemented with 10% fetal bovine serum (ThermoFisher, #16140-071). Cells were incubated at 37° C., 5% CO2 for 48 hours until they reached 80% confluence. […] Media supplemented with blank Dimethyl sulfoxide (DMSO) was used as a control for both compounds. Phosphorylated amounts of S6K1 (Thr389) were detected by a sandwich ELISA kit (Cell signaling, #7063C) following the manufacture's protocol.

in vivo = conditions: male, Sprague Dawley, rat, whole blood; for bioavailability: oral, 3 mg/kg
[2] = Comparative blood and brain concentrations in rats after oral dosing; type: in vivo; conditions: rat; p.o. 3, 10 and 30 mg/kg; 3 h and 24 h
Procedure: Concentrations were determined using HPLC/Mass spectrometry. […] Blood and brain tissues were collected at 3 hours (h) and 24 h following treatment to determine concentrations of the compounds.

mTORC1 pathway = test: Inhibition of mTORC1 pathway in rat liver (p-S6/t-S6 immunoblot); type: in vivo
Procedure: Protein extraction and immunoblotting. For protein extraction, snap frozen tissues were lysed in MSD Lysis Buffer (MSD, Rockville, Maryland), supplemented with complete EDTA free protease inhibitor and PhosSTOP phosphatase inhibitor tablets (Roche, Manheim, Germany), and centrifuged at 13,000 g for 20 min at 4° C. The resultant supernatant was used for immunoblotting. Protein was quantified with BCA protein assay (Thermo Scientific, MA). Samples were resolved on 4-20% Criterion™ TGX™ Precast Midi Protein gels (Bio-Rad, CA) and transferred onto nitrocellulose membranes (Bio-Rad, CA) using a Trans Turbo Blot system (Bio-Rad, CA). Immunoblotting was performed with antibodies to p-S6 and t-S6 from Cell Signaling Technologies (all 1:1000 in TBS-T with 5% BSA). The ‘p’ and ‘t’ prefixes signify ‘phosphorylated’ and ‘total’ forms respectively. HRP-conjugated secondary antibodies against rabbit (#7074) were from Cell Signaling Technologies, MA. […] Resultant digital images were converted into a TIFF format and quantified using ImageJ software.
The ability of Example 2 to inhibit mTORC1 pathway in vivo was determined in rats aged 4 months (FIG. 5A-5D).

FKBP52, sequence (Q02790 whole entry): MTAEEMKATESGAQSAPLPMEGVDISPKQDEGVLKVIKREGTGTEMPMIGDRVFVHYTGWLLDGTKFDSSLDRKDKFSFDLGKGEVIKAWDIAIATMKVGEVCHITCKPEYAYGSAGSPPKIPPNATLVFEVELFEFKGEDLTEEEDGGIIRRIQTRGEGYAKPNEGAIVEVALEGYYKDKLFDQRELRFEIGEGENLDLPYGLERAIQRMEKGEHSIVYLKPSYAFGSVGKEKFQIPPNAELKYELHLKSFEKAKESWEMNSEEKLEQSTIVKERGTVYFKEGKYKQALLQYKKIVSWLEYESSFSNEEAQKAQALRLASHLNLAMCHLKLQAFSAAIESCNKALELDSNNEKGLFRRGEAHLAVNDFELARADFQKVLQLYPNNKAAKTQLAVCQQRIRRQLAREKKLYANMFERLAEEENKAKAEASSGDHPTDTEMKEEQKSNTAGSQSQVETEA
FKBP51, sequence (Q13451 whole entry): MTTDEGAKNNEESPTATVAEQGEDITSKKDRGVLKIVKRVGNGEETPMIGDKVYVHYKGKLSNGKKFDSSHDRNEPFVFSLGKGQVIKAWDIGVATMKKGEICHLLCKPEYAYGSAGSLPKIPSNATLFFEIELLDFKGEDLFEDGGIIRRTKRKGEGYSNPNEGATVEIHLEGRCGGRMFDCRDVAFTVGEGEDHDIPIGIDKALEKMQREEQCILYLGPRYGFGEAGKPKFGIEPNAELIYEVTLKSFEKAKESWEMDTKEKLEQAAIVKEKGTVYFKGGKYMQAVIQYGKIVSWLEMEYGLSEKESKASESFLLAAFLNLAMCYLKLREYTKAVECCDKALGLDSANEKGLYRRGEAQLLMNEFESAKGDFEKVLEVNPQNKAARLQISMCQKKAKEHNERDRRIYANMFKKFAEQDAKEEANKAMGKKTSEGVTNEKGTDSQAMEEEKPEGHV
FKBP12, sequence (P62942 whole entry, the tested form may be a part): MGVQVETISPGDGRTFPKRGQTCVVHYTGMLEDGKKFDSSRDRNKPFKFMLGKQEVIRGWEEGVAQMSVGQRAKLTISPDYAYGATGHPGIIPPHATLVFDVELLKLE

SMILES	Kd (FKBP12) [nM]	IC50 (mTORC1 signaling) [nM]	Kd (FKBP51) [nM]	Kd (FKBP52) [nM]	further results
CO[C@@H]1C[C@H](C[C@@H](C)[C@@H]2CC[C@H](C)/C=C(\C)[C@@H](O)[C@@H](OC)C(=O)[C@H](C)C[C@H](C)/C=C/C=C/C=C(\C)C(N3CCS3(=O)=O)C[C@@H]3CC[C@@H](C)[C@@](O)(O3)C(=O)C(=O)N3CCCC[C@H]3C(=O)O2)CC[C@H]1O (single isomer, unassigned) [Example 6, C16-(1,1-dioxido-1,2-thiazetidin-2-yl)-C32-deoxo-rapamycin]	0.32	0.17	39	53	–
CO[C@@H]1C[C@H](C[C@@H](C)[C@@H]2CC[C@H](C)/C=C(\C)[C@@H](O)[C@@H](OC)C(=O)[C@H](C)C[C@H](C)/C=C/C=C/C=C(\C)C(N3CCS3(=O)=O)C[C@@H]3CC[C@@H](C)[C@@](O)(O3)C(=O)C(=O)N3CCCC[C@H]3C(=O)O2)CC[C@H]1O (single isomer, unassigned) [Example 7, C16-(1,1-dioxido-1,2-thiazetidin-2-yl)-C32-deoxo-rapamycin]	1.2	–	287	236	–
CO[C@@H]1C[C@H](C[C@@H](C)[C@@H]2CC[C@H](C)/C=C(\C)[C@@H](O)[C@@H](OC)C(=O)[C@H](C)C[C@H](C)/C=C/C=C/C=C(\C)C(N3CCS3(=O)=O)C[C@@H]3CC[C@@H](C)[C@@](O)(O3)C(=O)C(=O)N3CCCC[C@H]3C(=O)O2)CC[C@H]1OP(C)(C)=O (single isomer, unassigned) [Example 10, C16-(1,1-dioxido-1,2-thiazetidin-2-yl)-C32-deoxo-C40-dimethylphosphinyl-rapamycin]	–	0.557	95	–	–
CO[C@@H]1C[C@H](C[C@@H](C)[C@@H]2CC[C@H](C)/C=C(\C)[C@@H](O)[C@@H](OC)C(=O)[C@H](C)C[C@H](C)/C=C/C=C/C=C(\C)[C@@H](N3CCCS3(=O)=O)C[C@@H]3CC[C@@H](C)[C@@](O)(O3)C(=O)C(=O)N3CCCC[C@H]3C(=O)O2)CC[C@H]1O [Example 1, (S)—C16-(1,1-dioxidoisothiazolidin-2-yl)-C32-deoxo-rapamycin]	0.35	2.4	153	174	–
CO[C@@H]1C[C@H](C[C@@H](C)[C@@H]2CC[C@H](C)/C=C(\C)[C@@H](O)[C@@H](OC)C(=O)[C@H](C)C[C@H](C)/C=C/C=C/C=C(\C)[C@H](N3CCCS3(=O)=O)C[C@@H]3CC[C@@H](C)[C@@](O)(O3)C(=O)C(=O)N3CCCC[C@H]3C(=O)O2)CC[C@H]1O [Example 2, (R)—C16-(1,1-dioxidoisothiazolidin-2-yl)-C32-deoxo-rapamycin]	–	0.274	> 10000	–	maximum inhibition of S6K1(Thr389) [1]: 40%; clearance (in vivo; iv, 1 mg/kg): 9 mL/min/kg; half-life (in vivo; iv, 1 mg/kg): 9.9 h; bioavailability (in vivo): 18%; blood concentrations compared with RAD001 [2]: higher; brain concentrations compared with RAD001 [2]: higher; S6 inactivation in rat livers (mTORC1 pathway; 24 h following dosing with 10 (trend p=0.06) and 30 mg/kg): remained inactivated; de-phosphorylation (inactivation) of S6 in rat livers (mTORC1 pathway; single dose 3, 10 and 30 mg/kg, three hours following dosing, vs vehicle): significant de-phosphorylation
CO[C@@H]1C[C@H](C[C@@H](C)[C@@H]2CC[C@H](C)/C=C(\C)[C@@H](O)[C@@H](OC)C(=O)[C@H](C)C[C@H](C)/C=C/C=C/C=C(\C)[C@H](N3CCCS3(=O)=O)C[C@@H]3CC[C@@H](C)[C@@](O)(O3)C(=O)C(=O)N3CCCC[C@H]3C(=O)O2)CC[C@H]1OCCO [Example 16, (R)—C16-(1,1-dioxidoisothiazolidin-2-yl)-C32-deoxo-C40-(2-hydroxyethoxy)-rapamycin]	–	0.645	4060	–	–
CO[C@H]1C[C@@H]2CC[C@@H](C)[C@@](O)(O2)C(=O)C(=O)N2CCCC[C@H]2C(=O)O[C@H]([C@H](C)C[C@@H]2CC[C@@H](OCCO)[C@H](OC)C2)CC[C@H](C)/C=C(\C)[C@@H](O)[C@@H](OC)C(=O)[C@H](C)C[C@H](C)/C=C/C=C/C=C/1C [Intermediate 3]	–	0.0591	–	–	–
CO[C@H]1C[C@@H]2CC[C@@H](C)[C@@](O)(O2)C(=O)C(=O)N2CCCC[C@H]2C(=O)O[C@H]([C@H](C)C[C@@H]2CC[C@@H](OP(C)(C)=O)[C@H](OC)C2)CC[C@H](C)/C=C(\C)[C@@H](O)[C@@H](OC)C(=O)[C@H](C)C[C@H](C)/C=C/C=C/C=C/1C [Intermediate 4]	–	0.066	–	–	–
CO[C@H]1C[C@@H]2CC[C@@H](C)[C@@](O)(O2)C(=O)C(=O)N2CCCC[C@H]2C(=O)O[C@H]([C@H](C)C[C@@H]2CC[C@H](n3cnnn3)[C@H](OC)C2)CC[C@H](C)/C=C(\C)[C@@H](O)[C@@H](OC)C(=O)[C@H](C)C[C@H](C)/C=C/C=C/C=C/1C [Intermediate 5]	–	0.106	–	–	–
CO[C@H]1C[C@@H]2CC[C@@H](C)[C@@](O)(O2)C(=O)C(=O)N2CCCC[C@H]2C(=O)O[C@H]([C@H](C)C[C@@H]2CC[C@@H](OCCO)[C@H](OC)C2)CC(=O)[C@H](C)/C=C(\C)[C@@H](O)[C@@H](OC)C(=O)[C@H](C)C[C@H](C)/C=C/C=C/C=C/1C [RAD001, everolimus, reference compound]	–	0.05	811	–	maximum inhibition of S6K1(Thr389) [1]: 70%; clearance (in vivo; iv, 1 mg/kg): 32 mL/min/kg; bioavailability (in vivo): 19%
